Reference: paper PMC8300687, “A Fine-Tuned Lipophilicity/Hydrophilicity Ratio Governs Antibacterial Potency and Selectivity of Bifurcated Halogen Bond-Forming NBTIs” (Antibiotics, 2021)
≈ marks a conversion by molar mass, not a printed value.

Key:
[1] = system: A. baumannii 8C6 (GES-14); assay: MIC broth microdilution, A. baumannii; assay type: cell-based; conditions: Acinetobacter baumannii; read-out: MIC A. baumannii 8C6 (GES-14)
Description: (§1) Antimicrobial testing was carried out by the broth microdilution method in 96-well plate format following the Clinical and Laboratory Standards Institute (CLSI) guidelines and European Committee on Antimicrobial Susceptibility Testing (EUCAST) recommendations. Bacterial suspension of specific bacterial strain equivalent to 0.5 McFarland turbidity standard was diluted with cation-adjusted Mueller Hinton broth with TES (Thermo Fisher Diagnostic, Landsmeer, The Netherlands), to obtain a final inoculum of 10^5 CFU/mL. Compounds dissolved in DMSO and inoculum were mixed together and incubated for 18–20 h at 35 °C. Suspensions of Mycobacterium sp. were prepared into a tube of Middelbrook 7H9 broth supplemented with 5% OADC (Thermo Scientific, Trek Diagnostic Systems, West Sussex, UK) and incubated for at least 10 days. After incubation the minimal inhibitory concentration (MIC) values were determined by visual inspection as the lowest dilution of compounds showing no turbidity. Tetracycline was used as a positive control on every assay plate.

[2] = Equilibrium solubility at pH 6.8; conditions: for solubility thermodynamic at 24 h: phosphate buffered saline, 37 °C, pH 6.8, aqueous buffer, thermodynamic from solid
Description: Prior to the measurements of solubility and permeability isocratic HPLC methods were developed. […] The individual method parameters for each compound are given in the Supplementary Materials Table S1.
The vials were then placed in a homogenizer (Next Advance Bullet Blender, Troy, NY, USA) for 5 min ad speed setting “2” after which they were kept in a thermostated shaker (Tehtnica HeatMix, Domel, Slovenia) at 37 °C and 1200 RPM for 24 h. […] Twenty µL of these solutions were injected for the HPLC analysis by the described methods (Supplementary Materials Table S1). External standards for calibration were made in a mobile phase with 5% acetonitrile in a range of 30–90 mg/L and injected at 20 µL injection volumes.

M. avium = assay: MIC, M. avium; assay type: cell-based; conditions: Mycobacterium avium; read-out: MIC M. avium
Description: as §1

S. aureus Topo IV = biological target: T1, S. aureus Topo IV (Staphylococcus aureus, UniProt Q2FYS4); assay: biochemical; conditions: for IC50: mean of two to four measurements, read-out: Topoisomerase IV IC50 S. aureus; for LE Topo IV S. aureus: LE = (1.37/HA) × pIC50
T1 construct: purchased Inspiralis (Norwich, UK)
Description: A Topo IV Relaxation High Throughput Plate assay kit, purchased from Inspiralis (Norwich. UK) was used to determine IC50 values of compounds on S. aureus and E. coli. […] Biotinylated oligonucleotide in wash buffer was immobilized onto the wells, and the excess oligonucleotide was washed off with wash buffer and ultrapure water. 1.5 U of S. aureus or E. coli […] enzyme was incubated together with 0.75 μg of supercoiled pNO1 plasmid as a substrate in the presence of 3 μL inhibitor solution in 10% DMSO and 0.008% Tween 20 at 37 °C for 30 min in a final reaction volume of 30 μL in dilution buffer (50 mM Tris-HCl (pH 7.5), 1 mM DTT, 1 mM EDTA, 40% (w/v) glycerol for S. aureus and 40 mM HEPES, KOH (pH 7.6), 100 mM potassium glutamate, 1 mM DTT, 1 mM EDTA, and 40% (v/v) glycerol for E. coli). The reactions were stopped by adding the TF buffer (50 mM NaOAc (pH 4.7), 50 mM NaCl, and 50 mM MgCl2) to allow the triplex formation (biotin-oligonucleotide-plasmid) for additional 30 min. Afterward, the unbound plasmid was washed off using TF buffer, and the solution of Promega Diamond dye in T10 buffer (10 mM Tris-HCl (pH 8.0), 1 mM EDTA) was added. […] IC50 value represents the mean of two to four independent measurements.

[3] = biological target: T2, hERG potassium ion channel (Homo sapiens, UniProt Q12809); assay: FP-based hERG binding assay (Invitrogen kit)
T2 construct: purchased Invitrogen (assay run at TCG Lifesciences Pvt. Ltd.)
Description: Cardiovascular safety profile was entirely outsourced. hERG screening was performed at TCG Lifesciences Pvt. Ltd., Kolkata, West Bengal, India with FP-based hERG binding assay (Invitrogen kit).

HepG2 = assay: Metabolic activity assessment (cytotoxicity), HepG2; assay type: cell-based; conditions: Homo sapiens
Description: Cells of the HepG2 line (ATCC® HB-8065™) and HUVEC (ATCC® CRL-1730™) were cultured in Dulbecco’s Modified Eagle Medium (DMEM; Sigma-Aldrich, St. Louis, MO, USA) supplemented with 10% heat-deactivated FBS (Gibco, Grand Island, NE, USA), 2 mM L-glutamine, 100 U/mL penicillin, 100 μg/mL streptomycin (all from Sigma-Aldrich, St. Louis, MO, USA) in a humidified chamber at 37 °C and 5% CO2. The experiments were carried out on passages 7–9 for both cell lines. The tested compounds were dissolved in DMSO and further diluted in culture medium to a desired final concentration. Cells were seeded into 96-well plates at 8 × 10^4 cells/mL (100 μL/well) and incubated for 24 h to attach onto the wells. Cells were treated with 1 μM and 50 μM of each compound of interest or corresponding vehicle as control. […] The metabolic activity was assessed after 72 h treatment using the CellTiter 96 Aqueous One Solution Cell Proliferation Assay (Promega, Madison, WI, USA), in accordance with the manufacturer’s instructions. The absorbance was measured at 492 nm on an automated microplate reader BioTek Synergy HT (BioTek Instruments, Inc., Winooski, VT, USA). Data are presented as the percentage of metabolic activity of control cells stimulated with vehicle or as IC50 value (mean ± SD) from two independent experiments, each conducted in duplicate or triplicate. IC50 values were calculated by a non-linear regression model using Graph Pad Prism 7 software.

[4] = HepG2, 72 h, metabolic activity after 72 h treatment

T1 sequence (Q2FYS5 whole entry): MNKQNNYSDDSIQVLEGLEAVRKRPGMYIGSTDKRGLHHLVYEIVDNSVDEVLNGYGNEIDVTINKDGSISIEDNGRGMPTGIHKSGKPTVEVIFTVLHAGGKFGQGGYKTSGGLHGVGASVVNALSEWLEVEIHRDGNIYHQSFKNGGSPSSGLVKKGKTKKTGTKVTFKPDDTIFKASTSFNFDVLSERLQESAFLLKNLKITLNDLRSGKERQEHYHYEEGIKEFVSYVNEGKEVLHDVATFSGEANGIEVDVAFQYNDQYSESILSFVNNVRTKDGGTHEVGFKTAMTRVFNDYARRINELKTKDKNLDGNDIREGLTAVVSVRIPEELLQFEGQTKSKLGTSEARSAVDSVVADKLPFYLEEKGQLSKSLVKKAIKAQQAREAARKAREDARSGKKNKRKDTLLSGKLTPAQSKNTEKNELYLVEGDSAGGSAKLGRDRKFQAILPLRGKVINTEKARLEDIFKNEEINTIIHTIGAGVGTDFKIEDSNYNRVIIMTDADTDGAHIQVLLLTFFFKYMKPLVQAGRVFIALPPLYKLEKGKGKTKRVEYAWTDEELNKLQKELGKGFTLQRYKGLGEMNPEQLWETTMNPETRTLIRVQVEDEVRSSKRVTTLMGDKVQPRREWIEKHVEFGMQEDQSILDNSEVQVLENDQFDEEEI
T1 sequence (Q2FYS4 whole entry): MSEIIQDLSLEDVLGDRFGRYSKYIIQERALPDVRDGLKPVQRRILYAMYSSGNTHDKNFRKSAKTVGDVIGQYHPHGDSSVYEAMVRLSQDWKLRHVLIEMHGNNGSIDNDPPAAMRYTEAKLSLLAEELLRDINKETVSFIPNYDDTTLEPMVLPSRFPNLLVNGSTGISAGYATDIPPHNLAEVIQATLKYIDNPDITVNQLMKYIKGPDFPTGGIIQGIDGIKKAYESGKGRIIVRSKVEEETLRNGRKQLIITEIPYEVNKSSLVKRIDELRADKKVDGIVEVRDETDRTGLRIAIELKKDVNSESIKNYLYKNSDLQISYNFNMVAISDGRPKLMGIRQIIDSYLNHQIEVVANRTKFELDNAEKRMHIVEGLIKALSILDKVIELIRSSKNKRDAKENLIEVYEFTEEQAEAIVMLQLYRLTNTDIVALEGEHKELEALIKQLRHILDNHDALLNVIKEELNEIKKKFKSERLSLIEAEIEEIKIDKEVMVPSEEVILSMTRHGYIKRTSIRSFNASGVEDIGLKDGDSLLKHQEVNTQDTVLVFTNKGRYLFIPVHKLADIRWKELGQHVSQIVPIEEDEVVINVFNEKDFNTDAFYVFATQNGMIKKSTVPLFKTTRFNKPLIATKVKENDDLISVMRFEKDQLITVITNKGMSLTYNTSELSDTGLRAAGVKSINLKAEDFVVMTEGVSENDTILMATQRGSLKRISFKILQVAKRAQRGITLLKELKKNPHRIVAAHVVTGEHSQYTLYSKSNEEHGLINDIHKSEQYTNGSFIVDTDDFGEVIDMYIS
T2 sequence (Q12809 whole entry): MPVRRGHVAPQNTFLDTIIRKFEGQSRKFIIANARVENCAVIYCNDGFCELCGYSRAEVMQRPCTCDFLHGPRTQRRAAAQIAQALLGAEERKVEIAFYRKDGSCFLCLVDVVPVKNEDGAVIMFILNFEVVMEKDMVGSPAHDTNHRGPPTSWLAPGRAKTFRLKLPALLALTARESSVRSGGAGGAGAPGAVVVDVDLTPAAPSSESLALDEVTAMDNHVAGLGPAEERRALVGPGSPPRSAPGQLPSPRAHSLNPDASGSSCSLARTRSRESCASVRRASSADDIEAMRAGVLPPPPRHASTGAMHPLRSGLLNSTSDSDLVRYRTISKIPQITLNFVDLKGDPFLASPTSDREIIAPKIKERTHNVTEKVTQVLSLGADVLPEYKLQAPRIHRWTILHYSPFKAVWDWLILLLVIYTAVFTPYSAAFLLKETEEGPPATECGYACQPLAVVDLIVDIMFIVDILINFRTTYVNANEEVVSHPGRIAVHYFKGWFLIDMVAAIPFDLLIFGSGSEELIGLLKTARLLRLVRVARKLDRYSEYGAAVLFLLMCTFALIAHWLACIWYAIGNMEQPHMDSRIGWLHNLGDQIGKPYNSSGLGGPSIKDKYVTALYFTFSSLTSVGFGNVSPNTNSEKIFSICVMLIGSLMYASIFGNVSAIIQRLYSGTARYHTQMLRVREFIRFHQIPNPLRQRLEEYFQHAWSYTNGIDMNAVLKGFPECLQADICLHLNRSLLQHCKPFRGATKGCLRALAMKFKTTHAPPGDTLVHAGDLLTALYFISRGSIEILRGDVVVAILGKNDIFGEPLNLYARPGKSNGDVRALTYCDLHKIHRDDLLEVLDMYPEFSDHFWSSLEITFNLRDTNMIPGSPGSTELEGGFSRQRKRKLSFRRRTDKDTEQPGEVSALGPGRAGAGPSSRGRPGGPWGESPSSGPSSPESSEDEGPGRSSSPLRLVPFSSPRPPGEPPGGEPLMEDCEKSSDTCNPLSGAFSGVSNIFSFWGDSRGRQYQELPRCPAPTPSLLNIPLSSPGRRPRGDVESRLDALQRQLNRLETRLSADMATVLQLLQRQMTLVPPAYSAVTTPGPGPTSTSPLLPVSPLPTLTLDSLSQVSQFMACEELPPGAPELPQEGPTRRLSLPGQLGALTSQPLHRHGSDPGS

SMILES	MIC [1]	solubility thermodynamic at 24 h [2]	MIC (M. avium)	IC50 (S. aureus Topo IV)	solubility at pH 6.8 in words ([2]; pH 6.8, single-dose in 500 mL)	IC50 [3]	IC50 (HepG2; [4])	LE Topo IV S. aureus (S. aureus Topo IV)	IC50 (HepG2; HepG2, metabolic activity after 72 h treatment)
COc1ccc2nccc(CCN3CCC(NCc4ccc(F)cc4)CC3)c2n1 [Compound 12]	32 µg/mL (≈ 81.1 µM)	460 µg/mL (≈ 1170 µM)	32 µg/mL (≈ 81.1 µM)	> 100 µM	–	–	–	–	–
COc1ccc2nccc(CCN3CCC(NCc4ccc(Cl)cc4)CC3)c2n1 [Compound 13]	4 µg/mL (≈ 9.73 µM)	119 µg/mL (≈ 290 µM)	4 µg/mL (≈ 9.73 µM)	–	–	–	–	–	–
COc1ccc2nccc(CCN3CCC(NCc4ccc(Br)cc4)CC3)c2n1 [Compound 14]	1 µg/mL (≈ 2.2 µM)	72 µg/mL (≈ 158 µM)	2 µg/mL (≈ 4.39 µM)	–	–	–	–	–	–
COc1ccc2nccc(CCN3CCC(NCc4ccc(CO)cc4)CC3)c2n1 [Compound 16]	128 µg/mL (≈ 315 µM)	3390 µg/mL (≈ 8330 µM)	> 128 µg/mL	> 100 µM	soluble at this pH in any conceivable single-dose	3.24 µM	–	–	–
COc1ccc2nccc(CCN3CCC(NCc4ccc(C(N)=O)cc4)CC3)c2n1 [Compound 17]	128 µg/mL (≈ 305 µM)	560 µg/mL (≈ 1330 µM)	128 µg/mL (≈ 305 µM)	> 100 µM	–	–	–	–	–
COc1ccc2nccc(CCN3CCC(NCc4ccc(N(C)C)cc4)CC3)c2n1 [Compound 18]	8 µg/mL (≈ 19.1 µM)	537 µg/mL (≈ 1280 µM)	128 µg/mL (≈ 305 µM)	> 100 µM	–	–	–	–	–
COc1ccc2nccc(CCN3CCC(NCc4ccc(OC(F)F)c(OC)c4)CC3)c2n1 [Compound 19, N-(4-(Difluoromethoxy)-3-methoxybenzyl)-1-(2-(6-methoxy-1,5-naphthyridin-4-yl)ethyl)piperidin-4-amine]	8 µg/mL (≈ 16.9 µM)	79 µg/mL (≈ 167 µM)	128 µg/mL (≈ 271 µM)	29 ± 1.89 µM	–	0.46 µM	6.31 ± 0.09 µM	0.18	–
COc1ccc2nccc(CCN3CCC(NCc4ccc(OC(F)F)c(O)c4)CC3)c2n1 [Compound 20, 2-(Difluoromethoxy)-5-((1-(2-(6-methoxy-1,5-naphthyridin-4-yl)ethyl)piperidin-4-ylamino)methyl)phenol]	4 µg/mL (≈ 8.72 µM)	103 µg/mL (≈ 225 µM)	128 µg/mL (≈ 279 µM)	> 100 µM	–	0.18 µM	10.9 ± 0.12 µM	–	–
COc1ccc2nccc(CCN3CCC(NCc4ccc(C(F)(F)F)nc4)CC3)c2n1 [Compound 21, 1-(2-(6-Methoxy-1,5-naphthyridin-4-yl)ethyl)-N-((6-(trifluoromethyl)pyridin-3-yl)methyl)piperidin-4-amine]	16 µg/mL (≈ 35.9 µM)	209 µg/mL (≈ 469 µM)	4 µg/mL (≈ 8.98 µM)	18.5 ± 1.32 µM	–	1.97 µM	–	0.20	> 50 µM
